Seven compounds from patent US20240425523A1, “Compounds for the Degradation of EGFR Kinase” (Beigene Switzerland GMBH, priority 2023, published 2024) can be followed below.

Common to all, as to type: cell-based
The target of assay [1] is T1, EGFR L858R (BaF3-L858R cells) (Homo sapiens, UniProt P00533, L858R).
T1 construct: host or cells: BaF3
Put plainly: Cell degradation of EGFR, HTRF assay, BaF3-L858R cells. As to conditions: 16 h treatment; for DC50: EGFR degradation; for Dmax: maximum percentage of degradation. Put shortly:
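EGFR L858R levels measured by HTRF antibody pair in lysed BaF3-L858R cells after 16 h compound exposure (8-point 5-fold series from 10 uM final, 37° C). Degradation is relative to DMSO-only cells; DC50 fitted with Hill equation, Dmax taken as the largest percent loss.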

Assay [2] has as its target T2, EGFR-L858R/C797S (H1975-clone #8 cells) (Homo sapiens, UniProt P00533, C797S/L858R).
T2 construct: expressed in transfected cells; host or cells: H1975 (endogenous EGFR knocked out, clone #8)
Put plainly: Cell degradation of EGFR, HTRF assay, H1975-clone#8 (L858R/C797S) cells. The conditions noted are these: 16 h treatment; for DC50: EGFR degradation; for Dmax: maximum percentage of degradation. In general terms: TR-FRET usually uses a lanthanide donor and a delayed reading to cut background.

The target in assay [3] is T3, p-EGFR L858R (BaF3-L858R cells) (Homo sapiens, UniProt P00533, L858R).
T3 construct: host or cells: BaF3
Put plainly: Cell p-EGFR inhibition assay, HTRF, BaF3-L858R cells. The conditions noted are these: 16 h treatment; for Imax (%): maximum percentage of pEGFR inhibition; for pIC50: pEGFR inhibition. The procedure, abridged: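 BaF3-L858R cells treated 16 h at 37 °C, 5% CO2 with compound from 10 uM top, 5-fold dilutions, 8 doses, in 0.1% DMSO medium. Lysates read overnight by HTRF p-EGFR antibodies; IC50 fitted to four-parameter curve against DMSO high control.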

Assay [4] deals with p-EGFR Del19/C797S (H1975-clone #23 cells) (Homo sapiens, UniProt P00533). Put plainly: Cell p-EGFR inhibition assay, HTRF, H1975-clone#23 (DEL19/C797S) cells. The conditions noted are these: 16 h treatment; for Imax (%): maximum percentage of pEGFR inhibition; for pIC50: pEGFR inhibition. The procedure, abridged: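 Phospho-EGFR read by overnight HTRF on lysates, normalized to DMSO-treated high control; IC50, Hill slope and Imax fitted. Compounds were applied for 16 h (10 uM top, 5-fold steps, 8 doses) to an H1975 single clone carrying only exogenous Del19/C797S EGFR after sgRNA knockout of endogenous copies.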

pIC50: −log10 of the molar value.

For orientation: DC50 means the concentration giving 50% degradation. Higher therefore signals degradation only at high concentration. By Dmax is commonly meant the greatest extent of degradation seen. High values mean a fuller loss of target, low ones a partial loss of target. Broadly, the pIC50 is the IC50 on a negative log10 scale, so that one unit is a factor of ten. Higher therefore signals a low IC50. In assay [1], `COC[C@@H]1CN(c2cc3c(cc2F)N/C2=N\C(=O)c4cc(C)nc(c4)-c4c(C)nn(C)c4OC[C@H]4CC[C@H](C4)CN23)CCN1C1CCN(c2cc(F)c([C@H]3CCC(=O)NC3=O)c(F)c2)CC1` [Example 169, (R)-3-(2,6-difluoro-4-(4-((S)-4-((7^1R,7^3S,E)-5^5-fluoro-1^1,1^3,2^6-trimethyl-3-oxo-5^2,5^3-dihydro-1^1H,5^1H-9-oxa-4-aza-5(2,1)-benzo[d]imidazola-2(2,4)-pyridina-1(4,5)-pyrazola-7(1,3)-cyclopentanacyclononaphane-5^6-yl)-2-(methoxymethyl)piperazin-1-yl)piperidin-1-yl)phenyl)piperidine-2,6-dione] yielded a half-maximal degradation concentration (DC50) of 2.62 nM and a maximal degradation (Dmax) of 86.5%. Also, in assay [2], half-maximal degradation (DC50) was put at 2.81 nM and the greatest degradation seen (Dmax) was 91.6%. In assay [3], the “Imax (%)” value worked out at 100.12% and the negative-log IC50 (pIC50) was 8.06. In assay [4], the “Imax (%)” value was 102.95% and the pIC50 was 8.60.

In assay [1], `Cc1cc2cc(n1)-c1c(C)nn(C)c1OC[C@H]1CC[C@H](C1)CN1/C(=N/C2=O)Nc2ccc(N3CC4CCC3CN4C3CCN(c4cc(F)c([C@H]5CCC(=O)NC5=O)c(F)c4)CC3)cc21` [Example 193, (3R)-3-(2,6-difluoro-4-(4-(5-((7^1R,7^3S,E)-1^1,1^3,2^6-trimethyl-3-oxo-5^2,5^3-dihydro-1^1H,5^1H-9-oxa-4-aza-5(2,1)-benzo[d]imidazola-2(2,4)-pyridina-1(4,5)-pyrazola-7(1,3)-cyclopentanacyclononaphane-5^6-yl)-2,5-diazabicyclo[2.2.2]octan-2-yl)piperidin-1-yl)phenyl)piperidine-2,6-dione] displayed a 50% degradation concentration (DC50) of 7.4 nM and a Dmax of 76.2%. In assay [2], this compound registered a DC50 of 0.76 nM and a Dmax of 70.8%. Moreover, in assay [3], the “Imax (%)” value came to 101.04% and the pIC50 is 8.63. In assay [4], the “Imax (%)” value was 100.43% and the negative logarithm of the IC50 (pIC50) is 8.56.

Turning to `Cc1cc2cc(n1)-c1cnn(C)c1OC[C@H]1CCC(C1)CN1/C(=N/C2=O)Nc2ccc(N3CCN([C@@H]4CCN(c5ccc(C6CCC(=O)NC6=O)nc5C)CC4(F)F)CC3)cc21` (stereo partly drawn) [Example 105, 3-(5-((R)-4-(4-((7^1R,7^3S,E)-1^1,2^6-dimethyl-3-oxo-5^2,5^3-dihydro-1^1H,5^1H-9-oxa-4-aza-5(2,1)-benzo[d]imidazola-2(2,4)-pyridina-1(4,5)-pyrazola-7(1,3)-cyclopentanacyclononaphane-5^6-yl)piperazin-1-yl)-3,3-difluoropiperidin-1-yl)-6-methylpyridin-2-yl)piperidine-2,6-dione], in assay [1], half-maximal degradation (DC50) was put at 3.68 nM and the Dmax is 82.7%. In assay [2], this compound gave a DC50 of 4.09 nM and a Dmax of 85.2%. In addition, in assay [3], the “Imax (%)” value is given as 93.9% and the pIC50 was 8.00. For the same compound, in assay [4], the “Imax (%)” value was determined as 100.1% and the negative-log IC50 (pIC50) is 9.15.

For the compound `Cc1cc2cc(n1)-c1c(C)nn(C)c1OC[C@H]1CC[C@H](C1)CN1/C(=N/C2=O)Nc2ccc(N3[C@@H](C)CN(C4CCN(c5cc(F)c([C@H]6CCC(=O)NC6=O)c(F)c5)CC4)C[C@@H]3C)cc21` [Example 198, (R)-3-(4-(4-((3S,5S)-3,5-dimethyl-4-((7^1R,7^3S,E)-1^1,1^3,2^6-trimethyl-3-oxo-5^2,5^3-dihydro-1^1H,5^1H-9-oxa-4-aza-5(2,1)-benzo[d]imidazola-2(2,4)-pyridina-1(4,5)-pyrazola-7(1,3)-cyclopentanacyclononaphane-5^6-yl)piperazin-1-yl)piperidin-1-yl)-2,6-difluorophenyl)piperidine-2,6-dione], in assay [1], it took 7.56 nM to reach half-maximal degradation (DC50) and the Dmax is 89.7%. Also, in assay [2], it took 4.41 nM to reach half-maximal degradation (DC50) and the Dmax worked out at 100%. Moreover, in assay [3], the “Imax (%)” value was found to be 101.37% and the negative-log IC50 (pIC50) was 8.18. Further, in assay [4], the “Imax (%)” value came out at 102.48% and the pIC50 was 8.50.

Consider `COC[C@@H]1CN(c2ccc3c(c2)N2CC4CC[C@H](COc5c(cnn5C)-c5cc(cc(C)n5)C(=O)/N=C/2N3)C4)CCN1C1CCN(c2ccc(C3CCC(=O)NC3=O)nc2C)CC1` (stereo partly drawn) [Example 73, 3-(5-(4-((S)-4-((7^1R,7^3S,E)-1^1,2^6-dimethyl-3-oxo-5^2,5^3-dihydro-1^1H,5^1H-9-oxa-4-aza-5(2,1)-benzo[d]imidazola-2(2,4)-pyridina-1(4,5)-pyrazola-7(1,3)-cyclopentanacyclononaphane-5^6-yl)-2-(methoxymethyl)piperazin-1-yl)piperidin-1-yl)-6-methylpyridin-2-yl)piperidine-2,6-dione], for which the 50% degradation concentration (DC50) in assay [1] came out at 2.02 nM; in assay [2] it was 2.24 nM. For the same compound, the Dmax in assay [1] was 87.2%; in assay [2], 78.4%. Moreover, the figures for the “Imax (%)” value in assay [3] and in assay [4] were 93.5% and 101.1%, respectively. Moreover, the pIC50 is 7.99 in assay [3] and 9.00 in assay [4].

In assay [1], `COC[C@@H]1CN(c2cc3c(cc2C)N/C2=N\C(=O)c4cc(C)nc(c4)-c4cnn(C)c4OC[C@H]4CC[C@H](C4)CN23)CCN1C1CCN(c2cc(F)c([C@H]3CCC(=O)NC3=O)c(F)c2)CC1` [Example 96, (R)-3-(2,6-difluoro-4-(4-((S)-2-(methoxymethyl)-4-((7R,7^3S,E)-1^1,2^6,5^5-trimethyl-3-oxo-5^2,5^3-dihydro-1^1H,5^1H-9-oxa-4-aza-5(2,1)-benzo[d]imidazola-2(2,4)-pyridina-1(4,5)-pyrazola-7(1,3)-cyclopentanacyclononaphane-5^6-yl)piperazin-1-yl)piperidin-1-yl)phenyl)piperidine-2,6-dione] registered a DC50 of 3.41 nM and a Dmax of 86.6%. For the same compound, in assay [2], it took 3.15 nM to reach half-maximal degradation (DC50) and the Dmax came to 82.7%. In assay [3], the “Imax (%)” value worked out at 100.3% and the pIC50 is 8.20. For the same compound, in assay [4], the “Imax (%)” value is on record as 100.9% and the negative logarithm of the IC50 (pIC50) is 9.10.

Regarding `Cc1cc2cc(n1)-c1c(C)nn(C)c1OC[C@H]1CC[C@H](C1)CN1/C(=N/C2=O)Nc2ccc(N3CCC(C)(CN(C)C4CCN(c5cc(F)c([C@H]6CCC(=O)NC6=O)c(F)c5)CC4)CC3)cc21` [Example 168, (R)-3-(2,6-difluoro-4-(4-(methyl((4-methyl-1-((7^1R,7^3S,E)-1^1,1^3′2^6-trimethyl-3-oxo-5^2′5^3-dihydro-1^1H,5^1H-9-oxa-4-aza-5(2,1)-benzo[d]imidazola-2(2,4)-pyridina-1(4,5)-pyrazola-7(1,3)-cyclopentanacyclononaphane-5^6-yl)piperidin-4-yl)methyl)amino)piperidin-1-yl)phenyl)piperidine-2,6-dione], in assay [1], the half-maximal degradation concentration (DC50) amounted to 2.96 nM and the maximal degradation (Dmax) came to 80.9%. Also, in assay [2], the half-maximal degradation concentration (DC50) was found to be 3.07 nM and the Dmax was 81.1%. In assay [3], the “Imax (%)” value was 100.64% and the pIC50 was 8.06. Further, in assay [4], the “Imax (%)” value stood at 102.22% and the pIC50 was 8.59.
